{
  "source": "patent US7803757B2",
  "about": "“Peptides based on the sequence of human lactoferrin and their use” (PharmaSurgics in Sweden AB, priority 1998, dated 2010)",
  "type_in_all_cases": "cell-based",
  "key": {"[1]": {"tested_on": "C. glabrata", "experiment": "fungicidal activity MMC99%, C. glabrata (Example 27)", "conditions": "BHI diluted 1/100 (Table 23)", "experimental": "(§1) In the examples, the minimal microbicidal concentrations (MMC) and minimal inhibitory concentrations (MIC) were determined as follows, unless otherwise specified in the examples. Bacterial or fungal strains were cultured in BHI medium over night at 37° C. A volume of the culture was transferred to a new tube with BHI and incubated for two more hours. Thereafter the cells were spun down and the pellet was suspended in BHI medium diluted 1/100 (1% BHI). The concentration of bacterial or fungal cells was spectrophotometrically determined at 650 nm. The microbial concentrations were also determined by viable counts. Peptides serially diluted in 1% BHI by twofold or tenfold steps were added in triplicate to the wells of a microtiterplate (200 μl per well). The bacterial or fungal cell solutions were added in 10 μl volumes to give a final concentration of approximately 1-5×10^5 cells per ml in the well. The microplate was incubated at 37° C. in a humid chamber for two hours. Thereafter 5 μl was taken from each well and added as a drop onto a blood agar plate and incubated over night at 37° C. The microplate was incubated for another 20 hours at 37° C. and thereafter analysed spectrophotometrically at 650 nm in a microplate reader (Emax, Molecular Devices, USA). The concentration of peptide causing a 99% reduction of the inoculum after 2 hours of incubation was defined as the MMC99%. The MIC value was defined as the concentration giving no increase in the absorbance value above the background level after 20 hours of incubation.\n(§2) In this example the fungicidal activity of three of the peptides according to the invention was studied, and tested against three different fungi. The fungi were incubated in BHI medium diluted 1/100. The concentration of each peptide needed to kill 99% of the fungi (MMC99%) was determined."}, "[2]": {"tested_on": "C. albicans", "experiment": "MMC99% of modified peptides, C. albicans (Example 25)", "conditions": "BHI diluted 1/100, pH approximately 6.7-6.9 (Table 21)", "experimental": "as §1\n(§3) In this example the fungicidal, and bactericidal effects of the different peptides obtained in examples 18-21 were studied. C. albicans, E. coli and S. aureus, respectively, were incubated in BHI medium diluted 1/100, with a pH of approximately 6.7-6.9. The concentration of each peptide needed to kill 99% of the microorganisms (MMC99%) was determined."}, "[3]": {"tested_on": "E. coli O6K5", "experiment": "microbicidal activity MMC99%, E. coli O6K5 (Example 28)", "conditions": "E. coli O6K5 (Table 24)", "outline": "(§4)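 Peptides serially diluted in 1% BHI were incubated with E. coli O6K5 or C. albicans (~1-5×10^5 cells/ml) for 2 h at 37 °C, then spotted on blood agar overnight. MMC99% was the peptide concentration causing 99% reduction of the inoculum.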"}, "[4]": {"tested_on": "C. albicans", "experiment": "fungicidal activity MMC99%, C. albicans (Example 27)", "conditions": "BHI diluted 1/100 (Table 23)", "experimental": "as §1, §2"}, "[5]": {"tested_on": "C. albicans", "experiment": "microbicidal activity MMC99%, C. albicans (Example 28)", "conditions": "C. albicans (Table 24)", "outline": "as §4"}, "[6]": {"tested_on": "E. coli", "experiment": "MMC99% of modified peptides, E. coli (Example 25)", "conditions": "BHI diluted 1/100, pH approximately 6.7-6.9 (Table 21)", "experimental": "as §1, §3"}, "[7]": {"tested_on": "S. aureus", "experiment": "MMC99% of modified peptides, S. aureus (Example 25)", "conditions": "BHI diluted 1/100, pH approximately 6.7-6.9 (Table 21)", "experimental": "as §1, §3"}, "[8]": {"tested_on": "C. neoformans", "experiment": "fungicidal activity MMC99%, C. neoformans (Example 27)", "conditions": "BHI diluted 1/100 (Table 23)", "experimental": "as §1, with “The bacterial or fungal cell solutions were added in 10 μl volumes to give a final concentration of approximately 1-5×10^5 cells per ml in the well. The microplate was incubated at 37° C. in a humid chamber for two hours. Thereafter 5 μl was taken from each well and added as a drop onto a blood agar plate and incubated over night at 37° C.” left out, “The concentration of peptide causing a 99% reduction of the inoculum after 2 hours of incubation was defined as the MMC99%.” left out\nIn this example the fungicidal activity of three of the peptides according to the invention was studied, and tested against three different fungi. […] The concentration of each peptide needed to kill 99% of the fungi (MMC99%) was determined."}, "[9]": {"tested_on": "E. faecalis", "experiment": "killing of bacteria at fixed peptide concentration, E. faecalis (Example 12)", "conditions": "peptide 25 μg/ml", "experimental": "(§5) In this example, the peptides according to the invention were used to study the effect on the killing of different bacteria.\n(§6) The peptides were used at a concentration of 25 μg/ml."}, "[10]": {"tested_on": "P. aeruginosa", "experiment": "killing of bacteria at fixed peptide concentration, P. aeruginosa (Example 12)", "conditions": "peptide 25 μg/ml", "experimental": "as §5, §6"}, "[11]": {"tested_on": "K. pneumoniae", "experiment": "killing of bacteria at fixed peptide concentration, K. pneumoniae (Example 12)", "conditions": "peptide 25 μg/ml", "experimental": "as §5, §6"}, "[12]": {"tested_on": "C. albicans (ATCC64549)", "outline": "(§7)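 Microbes at ~1–5×10^5 cells/mL in 1% BHI exposed to peptides (1, 10, 25, 100 µg/ml) at 37 °C. MMC99%: concentration killing 99% of inoculum after 2 h, by spotting onto blood agar. MIC: no absorbance rise at 650 nm above background after a further 20 h.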"}, "[13]": {"tested_on": "E. coli O6", "outline": "as §7"}, "[14]": {"tested_on": "S. aureus", "experiment": "killing of bacteria at fixed peptide concentration, S. aureus (Example 12)", "conditions": "peptide 25 μg/ml", "experimental": "as §5, §6"}, "[15]": {"tested_on": "S. epidermis", "experiment": "killing of bacteria at fixed peptide concentration, S. epidermis (Example 12)", "conditions": "peptide 25 μg/ml", "experimental": "as §5, §6"}, "[16]": {"tested_on": "E. coli", "experiment": "MMC99% of modified peptides, E. coli (Example 26)", "conditions": "BHI diluted 1/100, pH approximately 6.7-6.9 (Table 22)", "experimental": "as §1\nas §3, with “example 22” for “examples 18-21”"}, "[17]": {"tested_on": "C. albicans yeast cells (ATCC64549)", "experiment": "killing and growth inhibition of C. albicans at pH 4.5 (Example 11)", "parameters": "key to C. albicans inhibition (OD650): + = no increase in OD650 is seen; − = OD650 continues to increase", "conditions": "pH 4.5, 1% BHI, 25 μg/ml of the peptide", "outline": "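Yeast cells exposed 2 h at pH 4.5 to 25 µg/ml peptide in 1% BHI, then plated on blood agar. Killing scored as 100% and 99% fungicidal effect; growth inhibition read as no OD650 increase after a further 18 h.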"}, "[18]": {"tested_on": "C. albicans", "experiment": "MMC99% of modified peptides, C. albicans (Example 26)", "conditions": "BHI diluted 1/100, pH approximately 6.7-6.9 (Table 22)", "experimental": "as §1\nas §3, with “example 22” for “examples 18-21”"}, "[19]": {"tested_on": "S. aureus", "experiment": "MMC99% of modified peptides, S. aureus (Example 26)", "conditions": "BHI diluted 1/100, pH approximately 6.7-6.9 (Table 22)", "experimental": "as §1\nas §3, with “example 22” for “examples 18-21”"}},
  "note": "Square brackets hold non-standard residues; d marks the D form. Ends that are not written are not given here. Orn = NCCC[C@H](N)C(=O)O",
  "data": [
    {"substance": "C-F-Q-W-Orn-R-N-M-R-K-V-R (CFQW[Orn]RNMRKVR) [SEQ. ID. NO. 87]", "values": [
      {"measurement": "MMC99%", "setting": "[1]", "result": ">50"},
      {"measurement": "MMC99%", "setting": "[2]", "result": 3},
      {"measurement": "MMC99%", "setting": "[3]", "result": 5},
      {"measurement": "MMC99%", "setting": "[4]", "result": 6.3},
      {"measurement": "MMC99%", "setting": "[5]", "result": 5},
      {"measurement": "MMC99%", "setting": "[6]", "result": 6},
      {"measurement": "MMC99%", "setting": "[7]", "result": "≦3.5"},
      {"measurement": "MMC99%", "setting": "[8]", "result": 3.1}
    ]},
    {"substance": "CFQWQRNMRKVR [Peptide 46, C-F-Q-W-Q-R-N-M-R-K-V-R]", "values": [
      {"measurement": "MMC99%", "setting": "[1]", "result": 50},
      {"measurement": "MMC99%", "setting": "[2]", "result": 12},
      {"measurement": "killing of bacteria: E. faecalis", "setting": "[9]", "result": "+ (+ = 99% of the bacteria are killed)"},
      {"measurement": "killing of bacteria: P. aeruginosa", "setting": "[10]", "result": "+ (+ = 99% of the bacteria are killed)"},
      {"measurement": "killing of bacteria: K. pneumoniae", "setting": "[11]", "result": "+ (+ = 99% of the bacteria are killed)"},
      {"measurement": "MIC", "setting": "[12]; ATCC64549", "result": 10, "unit": "µg/mL"},
      {"measurement": "MMC99%", "setting": "[12]; C. albicans, tested at 1, 10, 25 and 100 μg/ml of peptide", "result": 10, "unit": "µg/mL"},
      {"measurement": "MMC99%", "setting": "[13]; E. coli O6, tested at 1, 10, 25 and 100 μg/ml of peptide", "result": 10, "unit": "µg/mL"},
      {"measurement": "MIC", "setting": "[13]; O6", "result": 10, "unit": "µg/mL"},
      {"measurement": "killing of bacteria: S. aureus", "setting": "[14]", "result": "+ (+ = 99% of the bacteria are killed)"},
      {"measurement": "MMC99%", "setting": "[3]", "result": 10},
      {"measurement": "MMC99%", "setting": "[4]", "result": 12.5},
      {"measurement": "MMC99%", "setting": "[5]", "result": 10},
      {"measurement": "killing of bacteria: S. epidermis", "setting": "[15]", "result": "+ (+ = 99% of the bacteria are killed)"},
      {"measurement": "MMC99%", "setting": "[16]", "result": 6},
      {"measurement": "MMC99%", "setting": "[6]", "result": 12},
      {"measurement": "C. albicans inhibition (OD650)", "setting": "[17]; OD650 after an additional 18 hours", "result": "+"},
      {"measurement": "C. albicans killing: 99%", "setting": "[17]; 2 hours", "result": "+ (+ = 100/99% of the bacteria are killed)"},
      {"measurement": "C. albicans killing: 100%", "setting": "[17]; 2 hours", "result": "+ (+ = 100/99% of the bacteria are killed)"},
      {"measurement": "MMC99%", "setting": "[7]", "result": 7},
      {"measurement": "MMC99%", "setting": "[18]", "result": 12},
      {"measurement": "MMC99%", "setting": "[19]", "result": 12}
    ]}
  ]
}
